Experiments:
RPTC = settings: cited from earlier work; for maximal mitochondrial respiration / mitochondrial proteins (ATP synthase β, Cox1, NDUFB8): RPTC, 1-100 nM
[1] = test system: renal proximal tubule cells; assay: In-vitro mitochondrial biogenesis dose response (FCCP-uncoupled OCR, Seahorse); type: cell-based; settings: Oryctolagus cuniculus; rabbit renal proximal tubule cells, 24 h incubation, uncoupled OCR normalized to vehicle, Hill fit, N=4-6
Method: OCRs were measured using a Seahorse Bioscience analyzer (North Billerica, Mass.) before (basal) and after addition of […] FCCP, an ionophore that uncouples electron transport from ATP generation. The selective 5-HT1F receptor agonists LY334370 (4-fluoro-N-[3-(1-methyl-4-piperidinyl)-1H-indol-5-yl]benzamide) and LY344864 (N-[(3R)-3-(dimethylamino)-2,3,4,9-tetrahydro-1H-carbazol-6-yl]-4-fluorobenzamide), and the nonselective 5-HT receptor agonist a-methyl 5-HT were purchased from Tocris (Ellisville, Mo.).
In-vitro mitochondrial biogenesis dose responses (reported as EC50 values) were determined from a modification of the assay described in Example 21. […] Compounds were incubated at different doses with renal cells for 24 h after which their basal respiration and elevated FCCP-induced uncoupled oxygen consumption rates (OCRs) were measured using a Seahorse Bioscience analyzer (Beeson et al., 2010). Uncoupled OCRs were normalized to vehicle control OCRs and the rates that decrease at high concentrations of drug were eliminated. The remaining dose-dependent responses were fit to a standard Hill equation using non-linear regression to obtain the EC50 values for replicates of N=4-6 where N is the number of individual rabbit renal cell isolations tested for each compound.

[2] = test system: podocytes (1-1P4G5 podocyte clone); assay: Podocyte mitochondrial biogenesis (FCCP-uncoupled oxygen consumption rate); type: cell-based; settings: Mus musculus; differentiated podocytes, FCCP 1 μM uncoupled rate normalized to vehicle, Hill fit
Method: Fully differentiated podocytes were assayed using increased mitochondrial reserve capacity (measured as FCCP-uncoupled oxygen consumption rate) as a measure of mitochondrial biogenesis.
For these studies the 1-1P4G5 podocyte clone developed in the Kopp lab at the NIH were used. (25) These cells expressed a SV40-driven temperature sensitive T antigen that enabled the cells to proliferate in an undifferentiated state at the permissive temperature of 33° C. and then after 5 days of culture at 37° C. the cells are fully differentiated as mature podocytes. The differentiated cells were maintained in Advanced RPMI 1640 with 10% fetal calf serum and then plated at 1.5 million cells/96-well Seahorse plate for 48 h prior to treatment with test compound, vehicle control (VC) or validated 5-HT1F agonists. The plates were then transferred to a Seahorse XF96 Instrument during which basal and FCCP-uncoupled rates were measured (the [FCCP]=1 μM). Drugs were treated at a range of 1 nM, 10 nM, 100 nM, 500 nM, and 1 μM and the uncoupled rates were normalized to vehicle control, <0.2% DMSO in media. The doses responses were fit to a Hill function and the EC50 values were calculated from the non-linear regression.

[3] = test system: murine model of glomerular disease; assay: Nephrotoxic serum (NTS) induced chronic kidney disease model, albuminuria; type: in vivo, mouse; settings: C57/BL mice, 2 mg/kg once per day, FIG. 1
Source text: Renal dysfunction was modeled in mice using the nephrotoxic serum (NTS) induced model. The classical Adriamycin model for glomerular studies relies critically on dosing profiles, has resistance in some murine species, off-target effects in others, and required days (10 days) instead of hours for observable albuminuria (marker for renal compromise, determined by urine collection) compared to the NTS counterpart. (Mallipattu, S. K.; He, J. C. Am. J. Physiol. Renal Physiol. 2016, 311, F46-F51; Pippin, J. W.; Brinkkoetter, P. T.; Cormack-Aboud, F. C.; Durvasula, R. V.; Hauser, P. V.; Kowalewska, J.; Krofft, R. D.; Logar, C. M.; Marshall, C. B.; Ohse, T.; Shankland, S. J. Am. J. Physiol. Renal Physiol. 2009, 296, F213-F229). Conversely, the NTS model is quick onset (4 h) and has wide species reproducibility.
In this experiment, induction of the nephrotoxic serum (NTS) model ([…] injection) for glomerular decline was performed using C57/BL mice (15 mice total).
Urine albumin/creatinine ratios were measured in control (NTS+vehicle) and drug treated mice (NTS+drug (example 6) for pre-injection, day 2, day 6, day 12 and day 14. Drug was administered once per day at 2 mg/kg. Thus, it is expected that the compounds of the invention are useful to treat chronic kidney disease.

[4] = test system: ischemia/reperfusion-induced AKI; settings: following ischemia/reperfusion-induced AKI; cited from earlier work
[5] = test system: murine renal cortex, heart, and liver; settings: cited from earlier work

Structure (SMILES) | EC50 [1] [nM] | EC50 [2] [nM] | also measured
COc1cc(CC(C)N)c(OC)cc1I.Cl (stereo not shown) [DOT, 1-(2,5-dimethoxy-4-iodophenyl)-2-aminopropane hydrochloride] |  |  | recovery of mitochondrial function (RPTC; renal proximal tubular cells, following oxidant injury): accelerated the recovery of mitochondrial function; induction of MB (RPTC; renal proximal tubular cells): potent inducer of MB
COCCNC(=O)c1cnc2ccc(OC)cn2c1=O [Example 1, 7-methoxy-N-(2-methoxyethyl)-4-oxo-4H-pyrido[1,2-a]pyrimidine-3-carboxamide] | 0.02 |  | 
COCCNC(=O)c1cnc2ccc(NCCOC)cn2c1=O [Example 2, N-(2-methoxyethyl)-7-((2-methoxyethyl)amino)-4-oxo-4H-pyrido[1,2-a]pyrimidine-3-carboxamide] | 0.02 |  | 
COCCNC(=O)c1cnc(N)n(CCOC)c1=O [Example 3, 2-amino-N,1-bis(2-methoxyethyl)-6-oxo-1,6-dihydropyrimidine-5-carboxamide] | 20 |  | 
COCCNC(=O)c1cnc2c(OC)cc(OC)cc2c1O [Example 4, 4-hydroxy-6,8-dimethoxy-N-(2-methoxyethyl)quinoline-3-carboxamide] | 2 | 20 | 
COc1cc(OC)c2ncc(C(=O)N3CCN(C)CC3)c(O)c2c1 [Example 5, (4-hydroxy-6,8-dimethoxyquinolin-3-yl)(4-methylpiperazin-1-yl)methanone] | 1 | 100 | 
CN1CCN(C(=O)c2cccc(NC(=O)c3c(F)cc(F)cc3F)n2)CC1 [Example 6, 2,4,6-trifluoro-N-(6-(4-methylpiperazine-1-carbonyl)pyridin-2-yl)benzamide] | 2 | 100 | albuminuria (urine albumin/creatinine ratio) [3]: attenuated albuminuria
CN1CCCN(C(=O)c2cccc(NC(=O)c3c(F)cc(F)cc3F)n2)CC1 [Example 7, 2,4,6-trifluoro-N-(6-(4-methyl-1,4-diazepane-1-carbonyl)pyridin-2-yl)benzamide] | 0.2 |  | 
Cc1ccc(S(=O)(=O)Nc2cccc(C(=O)N3CCN(C)CC3)n2)cc1 [Example 8, 4-methyl-N-(6-(4-methylpiperazine-1-carbonyl)pyridin-2-yl)benzenesulfonamide] | 0.2 |  | 
CN1CCN(C(=O)c2cccc(NC(=O)N(C)C)n2)CC1 [Example 9, 1,1-dimethyl-3-(6-(4-methylpiperazine-1-carbonyl)pyridin-2-yl)urea] | 0.2 |  | 
CN1CCN(C(=O)c2cccc(Nc3nc4ccccc4[nH]3)n2)CC1 [Example 10, (6-((1H-benzo[d]imidazol-2-yl)amino)pyridin-2-yl)(4-methylpiperazin-1-yl)methanone] | 0.2 |  | 
CN1CCN(C(=O)c2cccc(NC(=O)c3ccccc3)n2)CC1 [Example 11, N-(6-(4-methylpiperazine-1-carbonyl)pyridin-2-yl)benzamide] | 2 |  | 
COCC(=O)N1CCc2ccc(Nc3nc4ccccc4o3)cc21 [Example 12, 1-(6-(benzo[d]oxazol-2-ylamino)indolin-1-yl)-2-methoxyethan-1-one] | 2 |  | 
COCC(=O)N1CCc2ccc(NC(=O)c3ccc(F)cc3F)cc21 [Example 13, 2,4-difluoro-N-(1-(2-methoxyacetyl)indolin-6-yl)benzamide] | 0.02 |  | 
COCC(=O)N1CCc2ccc(Nc3nc4ccccc4[nH]3)cc21 [Example 14, 1-(6-((1H-benzo[d]imidazol-2-yl)amino)indolin-1-yl)-2-methoxyethan-1-one] | 0.02 |  | 
COCC(=O)N1CCc2ccc(NC(=O)c3ccc(F)c(F)c3)cc21 [Example 15, 3,4-difluoro-N-(1-(2-methoxyacetyl)indolin-6-yl)benzamide] | 0.2 |  | 
COCC(=O)N1CCc2ccc(N(C)C(=O)c3c(F)cc(F)cc3F)cc21 [Example 16, 2,4,6-trifluoro-N-(1-(2-methoxyacetyl)indolin-6-yl)-N-methylbenzamide] | 0.002 |  | 
COCC(=O)N1CCc2ccc(NC(=O)c3cc(F)cc(F)c3)cc21 [Example 17, 3,5-difluoro-N-(1-(2-methoxyacetyl)indolin-6-yl)benzamide] | 0.02 |  | 
COCC(=O)N1CCc2ccc(N(S(=O)(=O)c3ccccc3)S(=O)(=O)c3ccccc3)cc21 [Example 19, N-(1-(2-methoxyacetyl)indolin-6-yl)-N-(phenylsulfonyl)benzenesulfonamide] | 2 | 20 | 
COCC(=O)N1CCc2ccc(NC(=O)c3cccc(Br)c3)cc21 [Example 20, 3-bromo-N-(1-(2-methoxyacetyl)indolin-6-yl)benzamide] | 0.02 |  | 
CN1CCC(C(=O)c2cccc(NC(=O)c3c(F)cc(F)cc3F)n2)CC1 [Example 24, 2,4,6-trifluoro-N-(6-(1-methylpiperidine-4-carbonyl)pyridin-2-yl)benzamide, reference compound] | 0.6 | 20 | 
CN(C)CC(=O)N1CCc2ccc(NS(=O)(=O)c3ccccc3)cc21 [Example 25, N-(1-(dimethylglycyl)indolin-6-yl)benzenesulfonamide] |  | 0.2 | 
CCN(CC)CC(=O)N1CCc2ccc(NC(=O)c3ccccc3)cc21 [Example 26, N-(1-(diethylglycyl)indolin-6-yl)benzamide] |  | 20 | 
O=C(Nc1ccc2c(c1)N(C(=O)CN1CCOCC1)CC2)c1ccccc1 [Example 27, N-(1-(2-morpholinoacetyl)indolin-6-yl)benzamide] |  | 20 | 
CN1CCC(c2c[nH]c3ccc(NC(=O)c4ccc(F)cc4)cc23)CC1 [LY334370, 4-fluoro-N-[3-(1-methyl-4-piperidinyl)-1H-indol-5-yl]benzamide] |  |  | maximal mitochondrial respiration (RPTC): increased; mitochondrial proteins (ATP synthase β, Cox1, NDUFB8) (RPTC): increased
CN(C)[C@@H]1CCc2[nH]c3ccc(NC(=O)c4ccc(F)cc4)cc3c2C1 [LY344864, N-[(3R)-3-(dimethylamino)-2,3,4,9-tetrahydro-1H-carbazol-6-yl]-4-fluorobenzamide] |  |  | recovery of renal function (BUN, KIM-1, mtDNA copy number) [4]: accelerated recovery of renal function; PGC-1α, Cox1 and NDUFB8 transcript levels and mtDNA copy number [5]: increased; maximal mitochondrial respiration (RPTC): increased; mitochondrial proteins (ATP synthase β, Cox1, NDUFB8) (RPTC): increased
